From patent US4060530A, “Clavulanic acid amides” (Beecham Group Limited, priority 1975, dated 1977)
≈ marks a conversion by molar mass, not a printed value. Like-named read-outs stand apart in the source and are kept apart here.

What was measured:
Klebsiella aerogenes A [1] = experiment: MIC / synergism, microtitre method (Example 42); type: cell-based; conditions: for Antibacterial synergism value, +5μg/ml. synergist (M.I.C. by method of Example 42): +5μg/ml. synergist (clavulanic acid sodium salt); for MIC: Klebsiella aerogenes, Alone (Tables 7, 8), Example 42 records M.I.C. in μg/ml, read-out: Antibacterial synergism value, Alone (M.I.C. by method of Example 42)
[2] = test system: Klebsiella aerogenes E 70; experiment: MIC / synergism, microtitre method (Example 42); type: cell-based; conditions: for Antibacterial synergism value, +5μg/ml. synergist (M.I.C. by method of Example 42): +5μg/ml. synergist (clavulanic acid sodium salt); for MIC: Klebsiella aerogenes
Klebsiella aerogenes 62 = experiment: MIC / synergism, microtitre method (Example 42); type: cell-based; conditions: for Antibacterial synergism value, +5μg/ml. synergist (M.I.C. by method of Example 42): +5μg/ml. synergist (clavulanic acid sodium salt); for MIC: Klebsiella aerogenes, 62, Alone (Tables 7, 8), Example 42 records M.I.C. in μg/ml, read-out: Antibacterial synergism value, Alone (M.I.C. by method of Example 42)
Klebsiella aerogenes A [3] = experiment: Growth inhibition / synergism; type: cell-based; conditions: for MIC: Klebsiella aerogenes, agent alone, read-out: concentration in whose presence growth is not inhibited; for concentration inhibiting growth when 5 μg/ml. of clavulanic acid is also present: plus 5 μg/ml clavulanic acid
Staph. aureus Oxford = experiment: MIC, method of Example 30 with 1/100 dilution of overnight broth (Example 46)
Procedure: (§1) The cultures were incubated overnight and the points of bacterial growth recorded next morning by observing the turbidity of the culture.

Staph. aureus Russell = experiment: as above
Procedure: as §1

Escherchia coli 10418 = experiment: as above
Procedure: as §1

Bacillus subtilis A = experiment: as above
Procedure: as §1

[4] = test system: Staphylococcus aureus (Russell); experiment: M.I.C. synergism with clavulanic acid methyl ester (Example 32); type: cell-based
[5] = test system: Staphylococcus aureus Russell; experiment: Growth inhibition / synergism; type: cell-based; conditions: for MIC: Staphylococcus aureus, agent alone, read-out: concentration in whose presence growth is not inhibited
Staphylococcus aureus = experiment: MIC / synergism, microtitre method (Example 42); type: cell-based; conditions: for MIC: Staphylococcus aureus, agent alone (Tables 5, 6), inoculum final dilution 0.5 ×10^-2, 37° C overnight, read-out: Minimum Inhibitory Concentration
Serratia marcescens = experiment: MIC / synergism, microtitre method (Example 42); type: cell-based; conditions: agent alone, inoculum final dilution 0.5 ×10^-2, 37° C overnight, read-out: Minimum Inhibitory Concentration
Proteus mirabilis C889 = experiment: M.I.C. synergism with clavulanic acid methyl ester (Example 32); type: cell-based; conditions: plus 5 μg/ml clavulanic acid methyl ester
[6] = test system: Escherichia coli NCTC 10481; experiment: MIC / synergism, microtitre method (Example 42); type: cell-based; conditions: NCTC10481, agent alone, inoculum final dilution 0.5 ×10^-2, 37° C overnight, read-out: Minimum Inhibitory Concentration
[7] = test system: strains of Klebsiella aerogenes (A, E 70, 62); experiment: Growth inhibition of the test organisms of Table 8 by the esters alone; conditions: read-out: concentration at which growth of the test organisms was not inhibited
Procedure: The final dilution of the inoculum was 0.5 ×10^-2. The tray was incubated at 37° C overnight and a record made next morning of the end points of bacterial growth.

[8] = Hydrolysis of the methyl ester to clavulanic acid in pH 7 buffer; type: physicochemical
Procedure: The reaction was followed by paper chromatography (bioautographic system). Using the butanol/ethanol/water system to follow the reaction over a period of 2 hours the zone of the methyl ester at Rf 0.79 decreased in size as the zone of clavulanic acid at Rf 0.12 increased.

bacteria = experiment: Tests for antibacterial activity in broth (Example 32); type: cell-based; conditions: may be due to clavulanic acid liberated by hydrolysis
[9] = test system: Staphylococcus aureus (Russell); experiment: MIC / synergism, microtitre method (Example 42); type: cell-based
Proteus mirabilis 899 = experiment: microbe, parasite or virus in culture; type: cell-based; conditions: method of Example 42
[10] = target: T1, β-lactamase produced by Escherichia coli JT4 (Escherichia coli, UniProt P62593); experiment: β-lactamase inhibition assay (Description 1); type: biochemical
T1 construct: This cell suspension was then disrupted in an MSE ultrasonic disintegrator; endogenous in cells; supernatant of sonicated cells
T1 sequence (P62593 24-286 limits assumed): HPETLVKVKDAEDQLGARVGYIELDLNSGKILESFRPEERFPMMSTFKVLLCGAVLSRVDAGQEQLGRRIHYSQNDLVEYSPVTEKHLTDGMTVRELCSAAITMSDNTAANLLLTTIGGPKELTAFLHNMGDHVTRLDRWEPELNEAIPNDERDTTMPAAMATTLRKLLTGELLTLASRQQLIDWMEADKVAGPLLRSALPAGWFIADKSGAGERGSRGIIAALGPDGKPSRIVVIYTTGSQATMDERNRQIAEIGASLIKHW
Procedure: Solutions containing clavulanic acid (culture filtrate, samples from isolation procedure and the like) are incubated for 15 minutes with a β-lactamase preparation in 0.05M phosphate buffer at pH 7 and 37° C. During this time, enzyme inhibition or inactivation occurs. Substrate (benzylpenicillin) is then added and incubation continued for 30 minutes at 37° C. The amount of enzymic degradation of the substrate to penicilloic acid is determined by the hydroxylamine assay for penicillin. The amount of β-lactamase used is such as to give 75% hydrolysis of the benzylpenicillin in 30 minutes at 37° C.
The extent of hydrolysis is a reflection of the amount of enzyme remaining uninhibited.
The β-lactamase produced by Escherichia coli JT4 is used as an enzyme. […] Other similar R-factor controlled β-lactamases may be used if desired.
For use in the assay procedure, the supernatant is diluted in 0.005M phosphate buffer until it gives about 75% hydrolysis of a 1 mg/ml. solution of benzylpenicillin in 30 minutes at 37° C.
Suitable dilutions of the inhibitor preparation and β-lactamase solution are mixed and incubated at 37° C for 15 minutes (Test). […] The absorption of the final solutions is measured in an E.E.L. Colorimeter or a Spectrophotometer at 490 nm against the reagent blank.
The percentage inhibition of the β-lactamase is calculated as follows […]

[11] = with 5 μg/ml of benzyl ester of clavulanic acid
[12] = with 5 μg/ml of methyl ester of clavulanic acid
[13] = plus 5 μg/ml clavulanic acid sodium salt, method of Example 42
[14] = heavy inoculum, 1/100 dilution of overnight broth, Example 30 records MIC in μg/ml

Structure (SMILES): CC1(C)S[C@@H]2[C@H](NC(=O)Cc3ccccc3)C(=O)N2[C@H]1C(=O)O [Benzylpenicillin, benzylpenicillin]
- Antibacterial synergism value, +5μg/ml. synergist (M.I.C. by method of Example 42) (Klebsiella aerogenes A [1]): 7.8
- MIC (Klebsiella aerogenes A [1]): 250 µg/mL
- Antibacterial synergism value, +5μg/ml. synergist (M.I.C. by method of Example 42) [2]: 15.6
- MIC ([2]; E70, read-out: Antibacterial synergism value, Alone (M.I.C. by method of Example 42)): 500 µg/mL
- Antibacterial synergism value, +5μg/ml. synergist (M.I.C. by method of Example 42) (Klebsiella aerogenes 62): 15.6
- MIC (Klebsiella aerogenes 62): 250 µg/mL
- MIC (Klebsiella aerogenes A [3]): > 125 µg/mL
- concentration inhibiting growth when 5 μg/ml. of clavulanic acid is also present (Klebsiella aerogenes A [3]): less than 12.5 μg/ml

Structure (SMILES): CC1(C)S[C@@H]2[C@H](NC(=O)C(C(=O)O)c3ccccc3)C(=O)N2[C@H]1C(=O)O (stereo partly shown) [carbenicillin]
- Antibacterial synergism value, +5μg/ml. synergist (M.I.C. by method of Example 42) (Klebsiella aerogenes A [1]): 7.8
- MIC (Klebsiella aerogenes A [1]): 500 µg/mL
- Antibacterial synergism value, +5μg/ml. synergist (M.I.C. by method of Example 42) [2]: 15
- MIC ([2]; E70, Alone (Tables 7, 8), Example 42 records M.I.C. in μg/ml, read-out: Antibacterial synergism value, Alone (M.I.C. by method of Example 42)): 500 µg/mL
- Antibacterial synergism value, +5μg/ml. synergist (M.I.C. by method of Example 42) (Klebsiella aerogenes 62): 7.8
- MIC (Klebsiella aerogenes 62): 125 µg/mL
- MIC (Klebsiella aerogenes A [3]): > 125 µg/mL
- concentration inhibiting growth when 5 μg/ml. of clavulanic acid is also present (Klebsiella aerogenes A [3]): less than 12.5 μg/ml

Structure (SMILES): CCCCCCCCCOC(=O)[C@H]1/C(=C/CO)O[C@@H]2CC(=O)N21 [Nonyl ester, Nonyl Clavulanate]
- MIC (Staph. aureus Oxford; Staphylococcus aureus): 31 µg/mL (≈ 95.3 µM)
- MIC (Staph. aureus Russell; Staphylococcus aureus): 31 µg/mL (≈ 95.3 µM)
- MIC (Escherchia coli 10418): 250 µg/mL (≈ 768 µM)
- MIC (Bacillus subtilis A; Bacillus subtilis): 31 µg/mL (≈ 95.3 µM)

Structure (SMILES): CC(C)(C)C(=O)OCOC(=O)[C@H]1/C(=C/CO)O[C@@H]2CC(=O)N21 [Pivaloyloxymethyl ester, Pivaloyloxymethyl Clavulanate]
- MIC (Staph. aureus Oxford; Staphylococcus aureus): 31 µg/mL (≈ 98.9 µM)
- MIC (Staph. aureus Russell; Staphylococcus aureus): 62 µg/mL (≈ 198 µM)
- MIC (Escherchia coli 10418): 125 µg/mL (≈ 399 µM)
- MIC (Bacillus subtilis A; Bacillus subtilis): 62 µg/mL (≈ 198 µM)

Structure (SMILES): CC1(C)S[C@@H]2[C@H](NC(=O)[C@H](N)c3ccccc3)C(=O)N2[C@H]1C(=O)O [ampicillin]
- Ampicillin 5 μg/ml of Benzyl Ester of clavulanic acid (M.I.C. by method of Example 42) (Klebsiella aerogenes A [1]; [11]): 1.9
- Ampicillin 5 μg/ml of Methyl Ester of clavulanic acid (M.I.C. by method of Example 42) (Klebsiella aerogenes A [1]; [12]): 1.9
- M.I.C. in the presence of 1.0 μg/ml. clavulanic acid methyl ester ([4]; plus 1 μg/ml clavulanic acid methyl ester): < 0.4 µg/mL
- MIC [5]: > 100 µg/mL
- concentration inhibiting growth in the presence of 1 μg/ml. of clavulanic acid ([5]; plus 1 μg/ml clavulanic acid): less than 10 μg/ml
- Ampicillin 5 μg/ml of Benzyl Ester of clavulanic acid (M.I.C. by method of Example 42) [2, 11]: 3.9
- Ampicillin 5 μg/ml of Methyl Ester of clavulanic acid (M.I.C. by method of Example 42) [2, 12]: 3.9
- MIC (Staphylococcus aureus): 250 µg/mL
- Ampicillin 5 μg/ml of Benzyl Ester of clavulanic acid (M.I.C. by method of Example 42) (Klebsiella aerogenes 62; [11]): 3.9
- Ampicillin 5 μg/ml of Methyl Ester of clavulanic acid (M.I.C. by method of Example 42) (Klebsiella aerogenes 62; [12]): 3.9
- MIC (Serratia marcescens): > 500 µg/mL
- M.I.C. in the presence of 5 μg/ml. clavulanic acid methyl ester (Proteus mirabilis C889): 31 µg/mL
- MIC [6]: 1.8 µg/mL

Structure (SMILES): COC(=O)[C@H]1/C(=C/CO)O[C@@H]2CC(=O)N21 [clavulanic acid methyl ester]
- MIC [7]: > 100 µg/mL
- conversion of the ester to clavulanic acid ([8]; 1 mg/ml, 37° C, 0.05M phosphate buffer pH 7, followed over 2 hours by paper chromatography): Slow conversion of the ester to clavulanic acid
- hydrolysis to clavulanic acid ([8]; water buffered to pH7): slowly hydrolyze to clavulanic acid
- antibacterial activity in broth (bacteria): broad spectrum activity but of a lower order than shown by clavulanic acid
- MIC (Klebsiella aerogenes A [3]): > 10 µg/mL

Structure (SMILES): O=C(Cc1cccs1)N[C@@H]1C(=O)N2C(C(=O)[O-])=C(C[n+]3ccccc3)CS[C@H]12 [cephaloridine]
- M.I.C. in the presence of 1.0 μg/ml. clavulanic acid methyl ester [4]: < 0.03 µg/mL
- MIC ([4]; Staphylococcus aureus, antibiotic alone, read-out: minimum inhibitory concentration (M.I.C.)): 1.5 µg/mL
- MIC ([9]; Staphylococcus aureus, agent alone (Tables 5, 6), inoculum final dilution 0.5 ×10^-2, 37° C overnight, read-out: Minimum Inhibitory Concentration): 3.1 µg/mL
- Minimum Inhibitory Concentration in presence of 5μg/ml clavulanic acid sodium salt [9, 13]: < 0.03 µg/mL
- MIC (Staphylococcus aureus): 15 µg/mL
- Minimum Inhibitory Concentration in presence of 5μg/ml clavulanic acid sodium salt (Staphylococcus aureus; [13]): 3.7 µg/mL
- MIC (Proteus mirabilis 899; Proteus mirabilis, 899, agent alone, * = Tailing Point, read-out: Minimum Inhibitory Concentration): 62 µg/mL (≈ 149 µM)
- Minimum Inhibitory Concentration in presence of 5μg/ml clavulanic acid sodium salt (Proteus mirabilis 899; plus 5 μg/ml clavulanic acid sodium salt): 7.5 µg/mL

Structure (SMILES): O=C1OC(OC(=O)[C@H]2/C(=C/CO)O[C@@H]3CC(=O)N32)c2ccccc21 (stereo partly shown) [Phthalidyl ester, Clavulanic Acid Phthalide Esters]
- MIC (Staph. aureus Oxford; [14]): 31
- MIC (Staph. aureus Russell; [14]): 15
- MIC (Escherchia coli 10418; [14]): 125
- MIC (Bacillus subtilis A; [14]): 125

Structure (SMILES): O=C(OCc1ccccc1)[C@H]1/C(=C/CO)O[C@@H]2CC(=O)N21 [Benzyl ester, benzyl ester of 3-(β-hydroxyethylidine)-7-oxo-4-oxa-1-azabicyclo [3,2,0]heptane-2-carboxylic acid]
- MIC (Staph. aureus Oxford; Staphylococcus aureus): 62 µg/mL (≈ 214 µM)
- MIC (Staph. aureus Russell; Staphylococcus aureus): 125 µg/mL (≈ 432 µM)
- MIC (Escherchia coli 10418): 125 µg/mL (≈ 432 µM)
- MIC [7]: > 100 µg/mL
- MIC (Bacillus subtilis A; Bacillus subtilis): 250 µg/mL (≈ 864 µM)

Structure (SMILES): O=C(O)[C@H]1/C(=C/CO)O[C@@H]2CC(=O)N21 [clavulanic acid, Z-(2R,5R)-3-(β-hydroxyethylidene)-7-oxo-4-oxa-1-azabicyclo[3,2,0]heptane-2-carboxylic acid]
- MIC [5]: > 5 µg/mL
- mode of inhibition of the β-lactamase of Escherichia coli [10]: progressively and irreversibly inhibits
